Data: BigSolDB 2.1

COc1cc2nc(Cl)nc(N)c2cc1OC
solubility (mole fraction)
Settings | 273.15 K | 278.15 K | 283.15 K | 288.15 K | 293.15 K | 298.15 K | 303.15 K | 308.15 K | 313.15 K
in 1,4-dioxane | – | – | – | 0.000108 | 0.000129 | 0.000154 | 0.000183 | 0.000216 | 0.000253
in DMF | 0.00286 | 0.00336 | 0.00405 | 0.00495 | 0.00586 | 0.00687 | 0.00817 | 0.00979 | 0.0116
in NMP | 0.00572 | 0.00648 | 0.00746 | 0.00838 | 0.00932 | 0.0103 | 0.0113 | 0.0124 | 0.0137
in cyclohexanone | 0.00109 | 0.0013 | 0.00151 | 0.00177 | 0.00206 | 0.00241 | 0.0028 | 0.00324 | 0.00385
in ethanol | 0.000169 | 0.000206 | 0.000246 | 0.0003 | 0.000359 | 0.000423 | 0.000497 | 0.000585 | 0.000693
in ethyl acetate | 0.000278 | 0.000322 | 0.000375 | 0.000443 | 0.000522 | 0.000618 | 0.000725 | 0.000853 | 0.00101
in isobutanol | 0.000232 | 0.000272 | 0.000325 | 0.00038 | 0.000443 | 0.000514 | 0.000601 | 0.000706 | 0.000841
in isopropanol | 0.000142 | 0.000173 | 0.000209 | 0.000257 | 0.000306 | 0.000362 | 0.000434 | 0.000518 | 0.000622
in methanol | 0.000109 | 0.000139 | 0.000171 | 0.00021 | 0.000255 | 0.00031 | 0.000378 | 0.000458 | 0.000544
in n-butanol | 0.000252 | 0.000294 | 0.000345 | 0.000402 | 0.000467 | 0.000548 | 0.000648 | 0.000763 | 0.000929
in n-propanol | 0.000209 | 0.000245 | 0.00029 | 0.000343 | 0.000403 | 0.000471 | 0.000552 | 0.000657 | 0.000769
in toluene | 2e-06 | 2.7e-06 | 3.7e-06 | 5.1e-06 | 6.9e-06 | 9.2e-06 | 1.26e-05 | 1.66e-05 | 2.17e-05
